Reference: PMC12921516 (ACS Bio & Med Chem Au, 2025)

Tests used:
Assay type in all cases: biochemical
hTCPTP1–415 = molecular target: T1, hTCPTP1–415 (Homo sapiens, UniProt P17706); test: TCPTP inhibitory activity; details: pNPP substrate; tested up to 100 μM
T1 construct: h TCPTP 1–415 IC 50 (μM ± S.D); made in house
T1 sequence (P17706 1-415): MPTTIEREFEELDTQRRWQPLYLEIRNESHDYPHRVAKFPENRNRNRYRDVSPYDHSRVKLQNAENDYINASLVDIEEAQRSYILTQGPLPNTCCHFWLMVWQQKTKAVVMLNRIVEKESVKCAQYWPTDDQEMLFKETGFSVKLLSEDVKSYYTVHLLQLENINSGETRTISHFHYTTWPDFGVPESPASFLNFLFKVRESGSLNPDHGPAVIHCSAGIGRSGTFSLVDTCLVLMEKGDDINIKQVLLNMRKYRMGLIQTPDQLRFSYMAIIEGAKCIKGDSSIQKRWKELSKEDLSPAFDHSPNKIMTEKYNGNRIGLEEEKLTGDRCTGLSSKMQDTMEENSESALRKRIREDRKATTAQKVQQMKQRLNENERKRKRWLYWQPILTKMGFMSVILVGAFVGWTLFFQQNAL
Description: The effectiveness and safety of a PTP1B inhibitor primarily depend on its selectivity, given that protein tyrosine phosphatases share significant structural homology within their catalytic domains. […] Ertiprotafib was also included in this study.
(§1) Aliquots of 0–10 μL of the test compounds (triplicate) were taken and incubated for 15 min at 37 °C with 85 μL of Tris buffer solution (50 mM, pH 6.8) containing PTP1B enzyme and 5 μL of p-nitrophenyl phosphate substrate (pNPP, 10 mM). The absorbance of the hydrolysis product, p-nitrophenol (pNP), was measured at 405 nm using a 96-microplate absorbance reader (Accuris SmartReader 96). The inhibitory activity was determined according to eq . %enzyme=(A405b/A405c)×100 1 Where: % enzyme is the percentage of inhibition for PTP1B or TCPTP
(§2) The IC50 was calculated using regression analysis, eq : %inhibition=A100/1+(I/IC50)^s 2 Where: A100: Maximum inhibition

hPTP1B1–400 [1] = molecular target: T2, hPTP1B1–400 (Homo sapiens, UniProt P18031); test: Enzymatic kinetics studies (Lineweaver–Burk, model fitting); details: for inhibition type: hPTP1B1–400, best fit model; for Ki: hPTP1B1–400, pNPP 0.1–0.5 mM; for Km / Vmax: hPTP1B1–400 with inhibitor
T2 construct: h PTP1B 1–400 IC 50 (μM ± S.D); made in house
T2 sequence (P18031 1-400): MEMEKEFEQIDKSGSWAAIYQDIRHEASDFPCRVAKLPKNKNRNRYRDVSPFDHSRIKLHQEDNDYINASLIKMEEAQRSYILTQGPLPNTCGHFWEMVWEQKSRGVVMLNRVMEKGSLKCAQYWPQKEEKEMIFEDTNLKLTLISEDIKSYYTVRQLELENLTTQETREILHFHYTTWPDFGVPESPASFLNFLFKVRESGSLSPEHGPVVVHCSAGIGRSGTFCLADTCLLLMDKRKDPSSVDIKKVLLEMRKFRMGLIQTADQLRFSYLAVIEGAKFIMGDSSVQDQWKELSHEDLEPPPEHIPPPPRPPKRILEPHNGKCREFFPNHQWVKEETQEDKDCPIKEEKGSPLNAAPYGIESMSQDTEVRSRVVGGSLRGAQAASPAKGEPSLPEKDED
Description: Kinetic analyses were conducted using varying concentrations of substrate and inhibitor.
Five increasing concentrations of each inhibitor were tested, according to their previously determined IC50 values. The negative control was prepared by omitting the inhibitor in the presence of the enzyme and substrate. The Supporting Information includes detailed eqs (E1–E5) used to determine the kinetic parameters and mechanisms involved in PTP1B inhibition.
Equation 1 was used to obtain enzyme kinetic parameters by fitting data to the Michaelis-Menten model (Origin Pro
The equations defined for the following non-linear inhibition models were used to determine the mechanism of
PTP1B inhibition: competitive (E2), non-competitive (E3), uncompetitive (E4), and mixed (E5) (Origin Pro 2018 (64
(1+ ( ))(x05nh ) + (1+ ( )) (x05 nh)
Vmax is the maximum velocity, x is the substrate concentration, i is the inhibitor concentration, nh is the number of
Hill. Ki is the inhibition constant, and Km is the Michaelis constant.

hPTP1B1–285 = molecular target: T3, hPTP1B1–285 (Homo sapiens, UniProt P18031); test: PTP1B inhibition, pNPP hydrolysis, short form; details: pNPP substrate; ± S.D
T3 construct: h PTP1B 1–285 IC 50 (μM ± S.D); made in house
T3 sequence (P18031 1-285): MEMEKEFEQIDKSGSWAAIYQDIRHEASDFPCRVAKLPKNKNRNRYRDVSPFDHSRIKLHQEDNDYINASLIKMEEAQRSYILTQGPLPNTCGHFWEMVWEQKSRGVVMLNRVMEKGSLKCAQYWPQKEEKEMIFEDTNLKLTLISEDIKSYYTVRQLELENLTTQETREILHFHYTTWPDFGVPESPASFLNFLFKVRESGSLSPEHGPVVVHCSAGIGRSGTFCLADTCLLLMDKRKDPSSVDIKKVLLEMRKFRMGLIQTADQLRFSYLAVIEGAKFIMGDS
Description: In contrast to analogous regions in other PTP family proteins, the intrinsically disordered C-terminal domain of PTP1B (residues 301–400) contains two α-helices, α8′ (residues 320–327) and α9′ (residues 360–377), which may act as binding sites for various compounds.
as §1, §2

hPTP1B1–400 [2] = molecular target: T2, hPTP1B1–400; test: PTP1B inhibition, pNPP hydrolysis, long form; details: pNPP substrate, 15 min 37 °C, pH 6.8; ± S.D

Structure (SMILES)	IC50 (hTCPTP1–415) [nM]	inhibition type (hPTP1B1–400 [1])	Ki (hPTP1B1–400 [1]) [nM]	Km (hPTP1B1–400 [1]) [µM]	Vmax (hPTP1B1–400 [1]) [mM/min]	IC50 (hPTP1B1–285) [nM]	IC50 (hPTP1B1–400 [2]) [nM]
CC1(C)c2[nH]c3ccc(OC(F)F)cc3c2C[C@]2(C)[C@H]3C(=O)C=C4[C@@H]5C[C@@](C)(C(=O)O)CC[C@]5(C)CC[C@@]4(C)[C@]3(C)CC[C@@H]12 [compound 4b, (20β)-5′-(Difluoromethoxy)-11-oxo-1′H-oleana-2,12-dieno[3,2-b]indol-29-oic Acid]	> 100000	uncompetitive	320 ± 50	760 ± 170	1.24 ± 0.18	7030 ± 280	1580 ± 70
CC1(C)c2[nH]c3ccc(S(N)(=O)=O)cc3c2C[C@]2(C)[C@H]3C(=O)C=C4[C@@H]5C[C@@](C)(C(=O)O)CC[C@]5(C)CC[C@@]4(C)[C@]3(C)CC[C@@H]12 [compound 4g, (20β)-5′-Sulfamoyl-11-oxo-1′H-oleana-2,12-dieno[3,2-b]indol-29-oic Acid]	> 100000	uncompetitive	1620 ± 190	870 ± 130	1.46 ± 0.15	9110 ± 580	2060 ± 120
CC1(C)c2c(cnn2-c2ccc(S(N)(=O)=O)cc2)C[C@]2(C)[C@H]3C(=O)C=C4[C@@H]5C[C@@](C)(C(=O)O)CC[C@]5(C)CC[C@@]4(C)[C@]3(C)CC[C@@H]12 [compound 5g, (20β)-11-Oxo-2′-(4-sulfamoylphenyl)-2′H-oleana-2,12-dieno[3,2-c]pyrazol-29-oic Acid]	> 100000	uncompetitive	720 ± 120	970 ± 200	1.34 ± 0.21	5510 ± 160	1480 ± 180
